Measurements published in US20100048482A1, “COMPOSITIONS AND METHODS FOR MODULATING EPSILON PROTEIN KINASE C-MEDIATED CYTOPROTECTION” (Board of Trustees of the Leland Stanford Junior University, priority 2008, published 2010).
“Also recorded” adds a separate entry of the source. Ends that are not written are not given here.

Legend:
εPKC = molecular target: T1, εPKC (Rattus norvegicus, UniProt P09216); assay: IR-induced mitochondrial translocation of εPKC (western blot of heart mitochondrial fraction)
T1 construct: Rat heart ventricles were removed from the cannula and homogenized; from tissue; host or cells: Wistar rat heart ventricle; mitochondrial, IMM or plasma membrane fractions
T1 sequence (P09216 1-737): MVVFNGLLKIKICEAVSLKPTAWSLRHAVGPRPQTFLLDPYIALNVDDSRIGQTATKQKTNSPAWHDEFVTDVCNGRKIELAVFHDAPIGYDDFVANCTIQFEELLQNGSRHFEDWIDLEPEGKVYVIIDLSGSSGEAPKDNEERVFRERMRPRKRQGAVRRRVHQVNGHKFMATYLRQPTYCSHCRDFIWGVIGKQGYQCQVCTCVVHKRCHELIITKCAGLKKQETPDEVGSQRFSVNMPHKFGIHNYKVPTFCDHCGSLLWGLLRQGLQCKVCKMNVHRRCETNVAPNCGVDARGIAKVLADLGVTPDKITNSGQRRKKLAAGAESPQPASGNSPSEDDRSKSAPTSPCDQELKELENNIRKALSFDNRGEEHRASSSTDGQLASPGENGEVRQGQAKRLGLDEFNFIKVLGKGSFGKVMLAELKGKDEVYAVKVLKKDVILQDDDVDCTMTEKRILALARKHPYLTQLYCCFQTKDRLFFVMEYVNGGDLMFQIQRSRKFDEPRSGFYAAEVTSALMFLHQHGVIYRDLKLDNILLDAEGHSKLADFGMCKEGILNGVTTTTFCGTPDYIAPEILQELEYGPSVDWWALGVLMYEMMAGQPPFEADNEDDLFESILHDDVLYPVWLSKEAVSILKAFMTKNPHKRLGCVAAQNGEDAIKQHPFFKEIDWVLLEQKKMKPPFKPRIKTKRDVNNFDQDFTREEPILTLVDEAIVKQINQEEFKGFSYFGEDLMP
Experimental: (§1) Rat hearts (Wistar, 250-300 g) were excised and cannulated on a Langendorff apparatus via the aorta. Briefly, retrograde perfusion was carried out with a constant coronary flow rate of 10 ml/min with oxygenated Krebs-Henseleit buffer containing 120 mM NaCl, 5,8 mM KCl, 25 mM NaHCO3, […], 1.2 mM MgSO4, 1.2 mM CaCl2, and 10 mM dextrose, pH 7.4 at 37° C. After a 20 min equilibration period, hearts were subjected to a 35 min of no-flow, global ischemia followed by 15 min of reperfusion. Control hearts were perfused with normoxic Krebs buffer and were time-matched for the experimental period. […] At the end of the 15 mins reperfusion period, hearts were rapidly transferred to ice-cold homogenization buffer and subcellular fractions separated by differential centrifugation as described below.
Rat heart ventricles were removed from the cannula and homogenized in ice-cold mannitol-sucrose buffer (210 mM mannitol, 70 mM sucrose, 5 mM MOPS and 1 mM EDTA containing Sigma Protease Inhibitor 1 and Sigma Phosphatase Inhibitors 1 and 2, added per manufacturer's instructions) The resultant homogenate was filtered through gauze and centrifuged at 700 g for 5 minutes to pellet nuclei and cellular debris. […] Mitochondrial purity was also assessed by electron microscopic analysis. Protein concentration was determined by Bradford assay and 10 μg protein separated on a 12% SDS-PAGE gel and transferred to nitrocellulose. PKC translocation was measured using antibodies raised against εPKC and δPKC with mitochondrial (ANT) and cytosolic (GAPDH) markers used to ensure equal sample loading of the mitochondrial and cytosolic fractions, respectively. […]
During reperfusion, ischemia-induced cell damage was determined by measuring the activity of creatine phosphokinase (CPK) in the coronary perfusate, carried out using a standard assay kit (Equal Diagnostics, CT, USA). […] Translocation of εPKC and the related isoform δPKC to the mitochondria and plasma membrane was determined by western blotting using εPKC and δPKC antibodies (Santa Cruz Biotechnology) (FIG. 5C). […]

[1] = test system: Langendorff perfused rat heart; assay: Ex vivo Langendorff perfused rat heart ischemia-reperfusion, creatine phosphokinase (CPK) release; settings: for effect on IR-induced CPK release / IR injury: ex vivo IR
Experimental: In accordance with a well-established ex vivo rat heart model for ischemia-reperfusion (see, e.g., U.S. Publication Nos. 20080167247, 20080153926, 20070299012, and 20060293237, which are herein incorporated by reference) and the method described in Example 1, hearts were removed from animals (rats) and subjected to a normoxia or an IR protocol, both depicted in FIG. 1A. The normoxia regimen comprised exposing hearts to 70 minutes of a normal oxygen state. The IR (ischemia/reperfusion) regimens comprised subjecting hearts to 20 minutes of normoxia, followed by 35 minutes of ischemia, followed by 15 minutes of reperfusion. […] The amount of necrotic cell death was then determined by measuring the release of creatine phosphokinase (CPK) into the buffer perfusate during reperfusion, which served as an indicator of ischemic damage.
as §1
Necrotic damage was determined by measurement of the release of the cardiac myocyte cytosolic enzyme, creatine phosphokinase (CPK), into the effluent (FIG. 1B). The levels are expressed in arbitrary CPK units.
Isolated rat hearts were perfused with oxygenated Krebs-Henseleit solution comprised of NaCl ([…]); KCl ([…]); NaHCO3 ([…]); NaH2O4 ([…]); MgSO4 (1.2 nmol/L); CaCl2 (1.0 nmol/L); and dextrose (10 nmol/L), pH 7.4 at 37 C. After a 10 minute equilibration period, the hearts were treated with the ψεHSP90 peptide or control buffer solution. As depicted in FIG. 5A, Perfusion was maintained at a constant flow of 10 mL/min with Krebs-Henseleit solution containing 1 μM of the appropriate peptide. The Langendorff method employs retrograde flow […] and into the coronary arteries, bypassing the pulmonary arteries. To induce global ischemia, flow was interrupted for 35 minutes. After the ischemic event, the hearts were reperfused with Krebs-Henseleit solution for 15 minutes.
During reperfusion, ischemia-induced cell damage was determined by measuring the activity of creatine phosphokinase (CPK) in the coronary perfusate, carried out using a standard assay kit (Equal Diagnostics, CT, USA). The ψεHSP90 peptide was perfused in Langendorf mode for 10 minutes before and 10 minutes after the ischemic period (1 micromolar) and myocardial injury was assayed by the release of CPK into the effluent during reperfusion (FIG. 5B). Similar to the previous results, hearts that were subjected to IR had high levels of CPK in the effluent; however, perfusion with ψεHSP90 peptide decreased CPK release by 47% (n4; p<0.05; FIG. 5B). Translocation of εPKC and the related isoform δPKC to the mitochondria and plasma membrane was determined by western blotting using εPKC and δPKC antibodies (Santa Cruz Biotechnology) (FIG. 5C). […] Physical interaction between PKCε and HSP90 was determined by co-immunoprecipitation of PKCε and HSP90 in the mitochondrial fraction in hearts exposed to normoxia or IR in the absence or presence of 1 μM ψεHSP90 (FIG. 5D).

δPKC = assay: IR-induced mitochondrial translocation of δPKC (western blot of heart mitochondrial fraction); design: species or system rat; settings: 1 μM ψεHSP90
recombinant human εPKC = molecular target: T2, recombinant human εPKC (Homo sapiens, UniProt Q02156); assay: In vitro mitochondrial translocation assay, recombinant GST-εPKC with isolated rat cardiac mitochondria; format: biochemical; settings: for mitochondrial translocation of εPKC in the absence of phospholipids (PS/DAG): 1 μM ψεHSP90, hydrogen peroxide present, no PS/DAG, FIG. 6B lane 5
T2 construct: purchased Cell Signaling Technology
T2 sequence (Q02156 1-737): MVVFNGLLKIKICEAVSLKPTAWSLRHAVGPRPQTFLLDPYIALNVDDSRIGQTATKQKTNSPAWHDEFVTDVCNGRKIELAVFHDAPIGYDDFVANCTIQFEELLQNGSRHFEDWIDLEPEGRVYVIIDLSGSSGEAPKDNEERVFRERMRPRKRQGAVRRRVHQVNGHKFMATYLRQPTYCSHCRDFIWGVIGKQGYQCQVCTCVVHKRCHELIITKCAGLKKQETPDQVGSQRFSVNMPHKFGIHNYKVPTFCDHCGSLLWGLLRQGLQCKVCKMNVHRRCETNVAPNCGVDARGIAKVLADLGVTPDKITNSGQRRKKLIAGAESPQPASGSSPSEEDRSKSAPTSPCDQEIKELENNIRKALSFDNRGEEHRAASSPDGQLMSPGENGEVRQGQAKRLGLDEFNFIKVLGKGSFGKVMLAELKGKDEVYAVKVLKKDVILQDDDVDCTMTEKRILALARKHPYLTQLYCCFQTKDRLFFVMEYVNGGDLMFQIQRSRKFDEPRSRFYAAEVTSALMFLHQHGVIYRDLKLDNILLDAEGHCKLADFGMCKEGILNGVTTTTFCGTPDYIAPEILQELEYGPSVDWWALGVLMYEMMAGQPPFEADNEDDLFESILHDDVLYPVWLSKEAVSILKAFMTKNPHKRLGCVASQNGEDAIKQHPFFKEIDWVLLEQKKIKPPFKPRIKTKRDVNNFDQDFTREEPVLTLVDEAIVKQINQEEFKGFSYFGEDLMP
Experimental: An in vitro approach was used to identify cellular components that were important for εPKC translocation to the mitochondria. As described in Example 5, mitochondria were isolated from normoxic hearts and incubated for 20 minutes at 37° C. with purified recombinant GST-tagged εPKC (Cell Signaling Technology Inc,), which was pretreated by different combinations of PKC activation components including phospholipids and hydrogen peroxide (H2O2) in the absence (FIG. 6A) and presence (FIG. 6B) of the ψεHSP90 peptide. Following incubation of PKCε with its activation components, mitochondria were introduced into the εPKC mixture and incubated for an additional 20 minutes, after which the mitochondria were pelleted by centrifugation and then probed with antibodies selective for PKCε and the mitochondrial marker VDAC The use of GST-tagged εPKC allowed the distinction, based on size, between exogenous GST-εPKC and native/endogenous εPKC present in the mitochondria prior to treatment. Rabbit reticulocyte lysate (RRL) was used as an exogenous source of HSP90 as described previously (Scherrer et al., Biochemistry. 1992. 31:7325-7329)
Activation of recombinant εPKC was performed as described in the art. Briefly, recombinant εPKC (5 μl of 10 ng/μl stock) (Cell Signaling Technology) was aliquoted into assay buffer (20 mM Tris HCl, 50 mM KCl, 1 mM DTT, 0.1 mg/ml BSA Mg^2+ (5 mM), ATP (100 μM), pH 7.4) containing different combinations of activation factors including phosphatidylserine/diacylglycerol (1 mM), H2O2 (50 μM) or ψεHSP90 (1 μm) in a final volume of 50 μl . εPKC was activated by incubation in assay buffer at 37° C. for 20 min. Rabbit reticulocyte lysate (RRL) (10 μl) was added to the incubation mixture for 10 minutes after εPKC activation. […] Mitochondria were then spun at 10,000 g×10 min, resuspended in 50 μl sample loading buffer and mitochondrial εPKC levels measured by western blotting using VDAC as a loading control. […]

PKCε = molecular target: T3, PKCε (Rattus norvegicus, UniProt P09216); assay: PKCε translocation to plasma membrane fraction after IR (western blot); settings: 1 μM ψεHSP90
T3 construct: Rat heart ventricles were removed from the cannula and homogenized; from tissue; host or cells: Wistar rat heart ventricle; mitochondrial, IMM or plasma membrane fractions
T3 sequence (P09216 1-737): T1 sequence (P09216 1-737)
Experimental: Rat heart ventricles were removed from the cannula and homogenized in ice-cold mannitol-sucrose buffer (210 mM mannitol, 70 mM sucrose, 5 mM MOPS and 1 mM EDTA containing Sigma Protease Inhibitor 1 and Sigma Phosphatase Inhibitors 1 and 2, added per manufacturer's instructions) The resultant homogenate was filtered through gauze and centrifuged at 700 g for 5 minutes to pellet nuclei and cellular debris. The supernatant was centrifuged at 10,000 g to pellet the mitochondrial-enriched fraction and the supernatant from this fraction centrifuged at 100,000 g to pellet the plasma membrane fraction. […] Mitochondrial purity was also assessed by electron microscopic analysis. Protein concentration was determined by Bradford assay and 10 μg protein separated on a 12% SDS-PAGE gel and transferred to nitrocellulose. PKC translocation was measured using antibodies raised against εPKC and δPKC with mitochondrial (ANT) and cytosolic (GAPDH) markers used to ensure equal sample loading of the mitochondrial and cytosolic fractions, respectively. Densitometry was performed using Image J software (NIH).
During reperfusion, ischemia-induced cell damage was determined by measuring the activity of creatine phosphokinase (CPK) in the coronary perfusate, carried out using a standard assay kit (Equal Diagnostics, CT, USA). […]

εPKC and HSP90 = molecular target: T4, εPKC and HSP90 (Rattus norvegicus, UniProt P09216); assay: Co-immunoprecipitation of εPKC and HSP90 in heart mitochondrial fraction after IR
T4 construct: 200-500 μg of mitochondrial or cytosolic protein was diluted into 1 ml of IP Lysis Buffer; from tissue; host or cells: Wistar rat heart; mitochondrial (and cytosolic) fraction
T4 sequence (P09216 1-737): T1 sequence (P09216 1-737)
Experimental: Since εPKC and HSP90 are predominately cytosolic proteins, it was expected to observe co-immunoprecipitation of εPKC and HSP90 in the cytosolic fraction following exposure to IR.
200-500 μg of mitochondrial or cytosolic protein was diluted into 1 ml of IP Lysis Buffer (150 mM NaCl, 10 mM Tris-HCl, 5 mM EDTA, 0.1% Triton X-100, pH=7.4, containing Sigma Protease Inhibitor 1 and Sigma Phosphatase Inhibitors 1 and 2). Proteins were incubated with εPKC antibody (2 μg) for 2 hours at 4° C. with inversion mixing. 10 μg of Protein A/G Beads (Santa Cruz Biotechnology) were added and the mixture was incubated overnight at 4° C. with inversion mixing. Beads were then centrifuged, washed 3× in IP Lysis Buffer, then re-suspended in sample buffer. Immunoprecipitated proteins were separated on 10% SDS-PAGE gels. The presence of associated proteins was determined by western blotting using antibodies specific for PKCε HSP90, TOM20 and TIM23. Protein immunoprecipitation was then repeated in reverse (immunoprecipitation with HSP90, TOM20 or TIM23 antibodies followed by western blotting with εPKC antibody). […]

block of IR-induced translocation of εPKC to the mitochondrial fraction (εPKC; GA 5 μm during reperfusion, n=5, p<0.05) [%] | effect on mitochondrial translocation of PKCε after IR (εPKC; 1 μM ψεHSP90) | higher mitochondrial PKCε levels versus IR group untreated with peptide (εPKC; IR in the presence of 1 μm ψεHSP90 peptide) [%] | mitochondrial translocation of εPKC in the absence of phospholipids (PS/DAG) (recombinant human εPKC) | mitochondrial translocation of εPKC in the absence of phospholipids (PS/DAG) (recombinant human εPKC; listed as ψεHSP90) | effect on association/translocation of εPKC with isolated mitochondria in vitro (recombinant human εPKC; 1 μM ψεHSP90, FIG. 6B lanes 2-5) | effect on PKCε translocation to the plasma membrane (PKCε) | reduction of IR-induced CPK release ([1]; 1 μM TAT-conjugated peptide, 10 min before ischemia and first 10 min of reperfusion, versus IR alone, p<0.05) [%] | effect on IR-induced physical association of PKCε and HSP90 at the mitochondria (εPKC and HSP90; 1 μM ψεHSP90) | increase in IR-induced physical interaction between HSP90 and PKCε (co-immunoprecipitation) (εPKC and HSP90; 1 μM ψεHSP90, mitochondrial fraction) [fold] | Compound | increase in CPK release ([1]; IR (35 min ischemia, 15 min reperfusion) with 5 μM GA during reperfusion, versus IR alone, n=7, p<0.05) [%] | effect on CPK release in the absence of IR injury ([1]; normoxic hearts, 5 μm or 10 μm GA) | effect on IR-induced CPK release / IR injury ([1]; 1 μM TAT-conjugated peptide) | effect on IR-induced CPK release / IR injury ([1]; 1 μM TAT-conjugated peptide, listed as corresponding sequence from the HSP90 protein) | effect on PKCδ association with the mitochondria after IR (δPKC)
54 | – | – | – | – | – | – | – | – | – | COC1=C2C[C@@H](C)C[C@H](OC)[C@H](O)[C@@H](C)/C=C(\C)[C@H](OC(N)=O)[C@@H](OC)/C=C\C=C(/C)C(=O)NC(=CC1=O)C2=O [GA, geldanamycin] | 176 | no effect | – | – | –
– | – | – | – | – | – | – | – | – | – | PEDEEEK (not fully specified) | – | – | no statistical effect | no effect | –
– | enhanced | ~20 | resulted in translocation of εPKC | sufficient to induce | increased | did not affect | 47 | increased | ~4 | PKDNEER (not fully specified) [ψεHSP90 peptide] | – | – | significantly reduced | – | not altered; also recorded: without effect
